# Assay results: ChEMBL document CHEMBL3774354, “Discovery of Selective Histone Deacetylase 6 Inhibitors Using the Quinazoline as the Cap for the Treatment of Cancer” (J Med Chem, 2016)
# Tests used:
# Histone deacetylase 8 = molecular target: T1, Histone deacetylase 8 (Homo sapiens, UniProt Q9BY41)
# T1 sequence (Q9BY41 whole entry): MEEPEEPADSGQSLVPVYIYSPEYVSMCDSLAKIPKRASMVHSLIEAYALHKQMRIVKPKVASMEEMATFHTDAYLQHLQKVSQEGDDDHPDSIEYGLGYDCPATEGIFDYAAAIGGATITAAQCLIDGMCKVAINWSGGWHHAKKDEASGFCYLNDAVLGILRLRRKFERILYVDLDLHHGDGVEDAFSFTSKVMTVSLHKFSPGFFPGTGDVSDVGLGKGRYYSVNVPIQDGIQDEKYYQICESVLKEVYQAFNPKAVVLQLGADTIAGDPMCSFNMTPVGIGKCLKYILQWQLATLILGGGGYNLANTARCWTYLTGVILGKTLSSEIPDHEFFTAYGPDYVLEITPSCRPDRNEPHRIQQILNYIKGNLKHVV
# Description: Inhibition of human recombinant HDAC8 using AMC labeled AC-peptide as substrate incubated for 1 hr by fluorescence analysis
# [1] = molecular target: T2, Protein deacetylase HDAC6 (Homo sapiens, UniProt Q9UBN7)
# T2 sequence (Q9UBN7 whole entry): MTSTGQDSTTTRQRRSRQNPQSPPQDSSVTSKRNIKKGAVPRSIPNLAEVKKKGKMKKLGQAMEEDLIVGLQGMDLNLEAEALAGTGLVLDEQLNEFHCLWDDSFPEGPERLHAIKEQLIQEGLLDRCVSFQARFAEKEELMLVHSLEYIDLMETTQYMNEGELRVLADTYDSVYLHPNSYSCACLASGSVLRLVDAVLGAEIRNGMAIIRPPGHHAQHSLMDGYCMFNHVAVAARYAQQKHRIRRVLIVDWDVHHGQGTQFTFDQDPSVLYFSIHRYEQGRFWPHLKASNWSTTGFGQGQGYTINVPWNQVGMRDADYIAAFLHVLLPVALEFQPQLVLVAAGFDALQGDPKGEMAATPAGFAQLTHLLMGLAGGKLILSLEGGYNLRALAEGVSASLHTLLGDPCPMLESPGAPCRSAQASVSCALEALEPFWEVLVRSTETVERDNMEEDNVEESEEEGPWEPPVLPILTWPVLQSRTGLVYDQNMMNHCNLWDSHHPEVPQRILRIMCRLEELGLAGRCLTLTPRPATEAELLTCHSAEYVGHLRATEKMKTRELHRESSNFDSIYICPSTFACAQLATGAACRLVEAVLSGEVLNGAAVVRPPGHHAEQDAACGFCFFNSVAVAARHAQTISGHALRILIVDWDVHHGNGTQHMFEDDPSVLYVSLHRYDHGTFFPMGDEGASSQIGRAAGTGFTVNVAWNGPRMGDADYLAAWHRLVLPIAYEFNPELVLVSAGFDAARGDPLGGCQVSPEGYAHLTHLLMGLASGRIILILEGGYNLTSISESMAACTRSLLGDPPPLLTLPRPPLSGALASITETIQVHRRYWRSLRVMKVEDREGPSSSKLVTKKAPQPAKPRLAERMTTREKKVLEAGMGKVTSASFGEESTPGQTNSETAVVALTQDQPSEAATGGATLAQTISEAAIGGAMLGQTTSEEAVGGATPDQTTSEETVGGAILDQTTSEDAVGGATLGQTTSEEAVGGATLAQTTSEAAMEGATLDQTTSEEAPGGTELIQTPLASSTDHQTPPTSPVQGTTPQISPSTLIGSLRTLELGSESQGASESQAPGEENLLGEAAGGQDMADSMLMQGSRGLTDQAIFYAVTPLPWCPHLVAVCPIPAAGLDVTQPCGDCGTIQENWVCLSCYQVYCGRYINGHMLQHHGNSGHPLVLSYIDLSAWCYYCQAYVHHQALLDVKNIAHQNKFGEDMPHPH
# Description: Inhibition of human recombinant HDAC6 using AMC labeled AC-peptide as substrate incubated for 1 hr by fluorescence analysis
# Histone deacetylase 1 = Histone deacetylase 1 (Homo sapiens, UniProt Q13547)
# Chain of Histone deacetylase 1 (Q13547 whole entry): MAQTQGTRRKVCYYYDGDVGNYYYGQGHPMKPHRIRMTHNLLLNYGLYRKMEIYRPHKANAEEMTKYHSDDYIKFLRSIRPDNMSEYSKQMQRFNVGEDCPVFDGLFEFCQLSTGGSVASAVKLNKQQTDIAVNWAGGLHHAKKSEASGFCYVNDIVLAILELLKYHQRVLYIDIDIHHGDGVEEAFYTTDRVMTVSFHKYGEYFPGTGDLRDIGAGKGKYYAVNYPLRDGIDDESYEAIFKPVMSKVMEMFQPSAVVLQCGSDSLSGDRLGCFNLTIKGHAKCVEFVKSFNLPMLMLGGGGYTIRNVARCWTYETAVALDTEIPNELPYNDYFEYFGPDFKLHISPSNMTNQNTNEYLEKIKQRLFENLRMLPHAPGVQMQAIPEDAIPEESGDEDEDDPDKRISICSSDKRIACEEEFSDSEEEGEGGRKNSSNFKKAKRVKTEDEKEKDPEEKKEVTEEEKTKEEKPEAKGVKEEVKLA
# Description: Inhibition of human recombinant HDAC1 using AMC labeled AC-peptide as substrate incubated for 1 hr by fluorescence analysis
# Mus musculus = assay: Toxicity in NOD/SCID mouse xenografted with human Ramos cells assessed as change in body weight at 10 mg/kg, ip q2d for 6 days; conditions: in vivo, 144 h
# Ramos = assay: Antitumor activity against human Ramos cells xenografted in NOD/SCID mouse assessed as tumor mass change at 10 mg/kg, ip q2d for 6 days; assay type: functional
# A-375 = assay: Antiproliferative activity against human A375 cells after 72 hrs by MTT assay; assay type: functional, cell-based; conditions: A-375, 72 h
# HeLa [2] = assay: Induction of histone H3 acetylation in human HeLa cells incubated for 6 hrs by cytoblot assay; assay type: functional, cell-based
# HeLa [3] = assay: Antiproliferative activity against human HeLa cells after 72 hrs by MTT assay; assay type: functional, cell-based
# [4] = molecular target: T2, Protein deacetylase HDAC6; assay: Inhibition of HDAC6 in human HeLa cells assessed as induction of tubulin acetylation incubated for 6 hrs by cytoblot assay; assay type: cell-based
Compound,IC50 (Histone deacetylase 8) [nM],IC50 [1] [nM],IC50 (Histone deacetylase 1) [nM],Activity (Mus musculus) [%],Activity (Ramos) [%],IC50 (A-375) [nM],EC50 (HeLa [2]) [nM],IC50 (HeLa [3]) [nM],EC50 [4] [nM]
COc1ccc(Nc2nc(C)nc3ccccc23)cc1OCCCC(=O)NO,> 1000,> 1000,> 1000,–,–,–,–,–,–
Cc1[nH]c2ccccc2c1CCNCc1ccc(/C=C/C(=O)NO)cc1 [PANOBINOSTAT],–,–,–,-1.9,16.6,–,–,–,–
Cc1nc(N(C)c2cccc(OCCCCCC(=O)NO)c2)c2ccccc2n1,> 1000,> 1000,73,–,–,–,–,–,–
Cc1nc(N(C)c2cccc(OCCCC(=O)NO)c2)c2ccccc2n1,> 1000,> 1000,> 1000,–,–,–,–,–,–
Cc1nc2c(c(N(C)c3ccc(OCC(=O)NO)cc3)n1)CCC2,2970,17,264,–,–,2850,1770,2220,50.8
Cc1nc(N(C)c2cccc(OCCCCC(=O)NO)c2)c2ccccc2n1,> 1000,> 1000,306,–,–,–,–,–,–
Cc1nc2c(c(N(C)c3ccc(OCCCCCC(=O)NO)cc3)n1)CCC2,1000,20,120,–,–,–,–,–,–
COc1ccc(N(C)c2nc(C)nc3ccccc23)cc1OCCCCCC(=O)NO,1530,23,160,–,–,–,–,–,–
Cc1nc2c(c(N(C)c3ccc(OCCCC(=O)NO)cc3)n1)CCC2,6190,40,195,–,–,–,–,–,–
